Laboratory results taken from patent US20250206751A1, “HETEROCYCLIC COMPOUND FOR INDUCING DEGRADATION OF G12D MUTANT KRAS PROTEIN” (Astellas Pharma Inc., priority 2022, published 2025).

Assays:
KRAS G12D protein = target: T1, KRAS G12D protein (Homo sapiens, UniProt P01116, G12D); assay: KRAS degradation activity by Cell ELISA in AsPC-1 (Test Example 1); assay type: cell-based; settings: AsPC-1 cells, cultured overnight with compound, corrected with β-actin, read-out: DC50 (50% degradation concentration of the amounts of KRAS)
T1 construct: host or cells: AsPC-1
Method in brief: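 AsPC-1 cells (KRAS G12D), 2.0×10^4/well, treated overnight with compound (10 points, 10 μM–0.3 nM final) in RPMI 1640/10% FBS. Fixed cells immunostained for G12D-specific Ras and β-actin, with near-IR fluorescence read. Ras/actin ratio scaled DMSO = 0% and actin-only = 100%, and DC50 fitted by Sigmoid-Emax regression.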

[1] = tested on: human KRAS G12D mutant-positive PK-59 pancreatic cancer cell line-derived xenograft; assay: Anti-tumor activity in PK-59 xenograft mice (Test Example 4); assay type: in vivo; settings: 10 mg/kg into tail vein, once a week, twice in total; PK-59 xenograft nude mice
Experimental: Test Example 4: Evaluation of Anti-Tumor Activity in Human KRAS G12D Mutant -Positive PK-59 Pancreatic Cancer Cell Line-Derived Xenograft Mice
PK-59 cells (RIKEN BRC, RCB1901) were cultured using a RPMI 1640 medium containing 10% fetal bovine serum in the presence of 5% CO2 at 37° C. The PK-59 cells were collected and suspended in PBS, and after adding an equal amount of Matrigel (from Becton, Dickinson and Company), 4-5-week-old male nude mice (CAnN.Cg-Foxn1^nu/CrlCrlj (nu/nu), from Charles River Laboratories Japan) were subcutaneously inoculated with the cell suspension of 1.0-2.0×10^7 cells/mL in a volume of 100 μL per mouse. About two weeks after the inoculation, the mice were divided into groups so that all the groups had approximately the same tumor volume and body weight, and administration of test compounds was started on the next day. The study was conducted for 5 mice each of a vehicle group and test compound administration groups. The compounds were dissolved in a solvent containing ethanol (from FUJIFILM Wako Pure Chemical Corporation), a 5% glucose solution (from Otsuka Pharmaceutical), 1M hydrochloric acid (from Kanto Chemical Co., Inc.), 50% (2-hydroxypropyl)-β-cyclodextrin (HP-βCD) solution (from ROQUETTE), HCO-40 (from Nikko Chemicals Co., Ltd.) and 1M sodium hydroxide solution (from Kanto Chemical Co., Inc.) at a liquid amount ratio of 4:84.4:1.1:1:9:0.5. The test compounds dissolved in the respective solvent for the test compound administration groups and the solvent for the vehicle group were administered into tail vein. The administration was performed once a week and twice in total. The tumor sizes and the body weights were measured twice a week. The tumor volumes were calculated using the following equation.
[Tumor volume (mm^3)]=[Long diameter of the tumor (mm)]×[Short diameter of the tumor (mm)]^2×0.5
The tumor growth inhibition rate (%) by the test compounds were calculated with the tumor volumes of the test compound administration groups on the previous day of the start of the administration taken as 100% inhibition and the tumor volumes of the vehicle groups two weeks after the initial administration taken as 0% inhibition. In addition, when the tumor volume of a test compound administration group was smaller than the tumor volume on the previous day of the start of the administration, the tumor regression rate (%) by the test compound was calculated with the tumor volume on the previous day of the start of the administration taken as 0% regression and with the tumor volume 0 taken as 100% regression.

T1 sequence (P01116 1-188 isoform P01116-2 G12D): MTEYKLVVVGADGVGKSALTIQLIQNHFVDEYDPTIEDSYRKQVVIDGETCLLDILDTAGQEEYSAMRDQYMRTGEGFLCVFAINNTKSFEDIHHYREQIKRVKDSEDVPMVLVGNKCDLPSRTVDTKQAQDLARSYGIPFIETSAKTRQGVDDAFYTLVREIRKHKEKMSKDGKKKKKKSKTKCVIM

| Structure (SMILES) | DC50 (KRAS G12D protein) | Anti-Tumor Activity Two Weeks After Initial Administration: tumor growth inhibition rate [1] | Anti-Tumor Activity Two Weeks After Initial Administration: tumor regression rate [1] |
| --- | --- | --- | --- |
| Cc1ncsc1-c1ccc([C@H](CO)NC(=O)[C@@H]2C[C@@H](O)CN2C(=O)[C@H](C(C)C)n2cc(-c3ccc(COc4c(-c5c(C)c(F)cc6[nH]ncc56)c(C5CC5)cc5c(N(C)[C@H]6CCNC6)nc(OC[C@H]6CCCO6)nc45)cc3)nn2)cc1 (atropisomer, axis not shown; (M)) [Example 9, (4R)-1-[(2S)-2-{4-[4-({[(7M) 6-cyclopropyl-7-(6-fluoro-5-methyl-1H-indazol-4-yl)-4-{methyl[(3S)-pyrrolidin-3-yl]amino}-2-{[(2R)-oxolan-2-yl]methoxy}quinazolin-8-yl}oxy}methyl)phenyl]-1H-1,2,3-triazol-1-yl}-3-methylbutanoyl]-4-hydroxy-N-{(1R)-2-hydroxy-1-[4-(4-methyl-1,3-thiazol-5-yl)phenyl]ethyl}-L-prolinamide] | 15 nM | 81% inhibition |  |
| CO[C@@H](C)COc1cc(N(C)[C@H]2CCNC2)c2cc(C3CC3)c(-c3c(C)c(F)cc4[nH]ncc34)c(OCc3ccc(-c4cn([C@H](C(=O)N5C[C@H](O)C[C@H]5C(=O)N[C@@H](CO)c5ccc(-c6scnc6C)cc5)C(C)C)nn4)cc3)c2n1 (atropisomer, axis not shown; (M)) [Example 11, (4R)-1-[(2S)-2-{4-[4-({[(7M)-6-cyclopropyl-7-(6-fluoro-5-methyl-1H-indazol-4-yl)-2-[(2S)-2-methoxypropoxy]-4-{methyl[(3S)-pyrrolidin-3-yl]amino}quinazolin-8-yl]oxy}methyl)phenyl]-1H-1,2,3-triazol-1-yl}-3-methylbutanoyl]-4-hydroxy-N-{(1R)-2-hydroxy-1-[4-(4-methyl-1,3-thiazol-5-yl)phenyl]ethyl}-L-prolinamide] | 10 nM |  | 6% regression |
| CCn1nccc1-c1ccc([C@H](CO)NC(=O)[C@@H]2C[C@@H](O)CN2C(=O)[C@H](C(C)C)n2cc(-c3ccc(COc4c(-c5c(C)c(F)cc6[nH]ncc56)c(C5CC5)cc5c(N(C)[C@H]6CCNC6)nc(OC[C@H](C)OC)nc45)cc3)nn2)cc1 (atropisomer, axis not shown; (M)) [Example 13] | 10 nM |  | 26% regression |
| CCN(c1nc(OC[C@H](C)OC)nc2c(OCc3ccc(-c4cn([C@H](C(=O)N5C[C@H](O)C[C@H]5C(=O)N[C@@H](CO)c5ccc(-c6scnc6C)cc5)C(C)C)nn4)cc3)c(-c3c(C)c(F)cc4[nH]ncc34)c(C3CC3)cc12)[C@H]1CCNC1 (atropisomer, axis not shown; (M)) [Example 50, (4R)-1-[(2S)-2-(4-{4-[({(7M)-6-cyclopropyl-4-{ethyl[(3S)-pyrrolidin-3-yl]amino}-7-(6-fluoro-5-methyl-1H-indazol-4-yl)-2-[(2S)-2-methoxypropoxy]quinazolin-8-yl}oxy)methyl)phenyl}-1H-1,2,3-triazol-1-yl)-3-methylbutanoyl]-4-hydroxy-N-{(1R)-2-hydroxy-1-[4-(4-methyl-1,3-thiazol-5-yl)phenyl]ethyl}-L-prolinamide] | 18 nM |  | 20% regression |
| CO[C@@H](C)COc1nc(N(C)[C@@H]2CCNC2)c2cc(C3CC3)c(-c3c(C)c(F)cc4[nH]ncc34)c(OCc3ccc(-c4cn([C@H](C(=O)N5C[C@H](O)C[C@H]5C(=O)N[C@@H](CO)c5ccc(-c6scnc6C)cc5)C(C)C)nn4)cc3)c2n1 (atropisomer, axis not shown; (M)) [Example 53] | 7 nM |  | 53% regression |
